# Test results taken from patent US6632616B2, “Compounds that selectively bind to expanded polyglutamine repeat domains and methods of use thereof” (Duke University, priority 2000, dated 2003).
# Entries after “also recorded” stand apart in the source; their conditions may differ. Where two headings read alike, the source gives them in different places. No end group written: not given here.
# What was measured:
# Qn-YFP = test: Polyglutamine-YFP (Qn-YFP) aggregate formation in co-transfected COS-7 cells, all lengths; format: cell-based; details: co-expression, 48 hours after transfection, FIG. 4
# Description: (§1) COS-7 cells examined 48 hours after transfection using a Zeiss fluorescence microscope with the CFP/YFP filter set from Omega Optical Inc. The percentage of cells with aggregates was calculated by counting the number of transfected cells containing aggregate and dividing by the total number of transfected cells multiplied times 100. In each experiment at least 200 transfected cells were counted. Experiments were repeated at least four times. Error bars represent standard errors. *=p<0.05;**=p<0.01 (Student's t-test)
# (§2) The CAG repeat of the Qn-GFP vector (Onodera, O. et al. (1996) FEBS Letters 399, 135-139) were inserted into the XhoI and EcoRI sites of the pEYFP-N1 vector (Clontech, Palo Alto, Calif.) to construct the Qn-YFP vectors. The polyglutamine-binding peptide and control constructs were prepared by ligating synthetic oligonucleotides into the XhoI and BamHI sites of the pECFP-N1 vector (Clontech) to obtain glutamine binding peptide 1-CFP (QBP1-CFP), scrambled QBP1-CFP (SCR-CFP), and a computer-generated random peptide-CFP (RAN)-CFP. The insert of QBP1-CFP was duplicated by PCR to obtain a tandem repeat of QBP1-CFP ((QBP1)2-CFP). The sequence of all constructs was confirmed by DNA sequencing. […]
# (§3) COS-7 cells were grown and maintained in Dulbecco's modified Eagles' medium (DMEM) supplemented with 10% fetal calf serum (FCS). […] Cells were examined 48 hours after transfection using a Zeiss fluorescence microscope equipped with YFP/CFP filter sets (Omega Optical Inc., Brattleboro, Vt.). The percentage of cells with aggregates was calculated by dividing the number of cells with aggregates by the total number of fluorescent cells, multiplied by 100. […] Cells were incubated with 5 μM ethidium homodimer for 30 minutes (37° C.) and then examined under a fluorescence microscope equipped with a rhodamine filter set. Cells with nuclear fluorescence were counted as dead. In each experiment at least 200 transfected cells were counted. […]
# thio-Q19 or 35 = test: Thioredoxin-polyglutamine turbidity assay, nonpathologic thio-Q19 or 35; format: biochemical
# Description: (§4) Turbidity assays were performed in 200 μl reactions consisting of thioredoxin-polyglutamine in PBS in 96-well, low protein binding plates. Plates were incubated at 4° C. and turbidity measured at 405 nm on a Thermo Max plate reader (Molecular Devices).
# (§5) Peptides were synthesized at the Howard Hughes Medical Institute peptide sequencing facility at Duke University with an acetylated amino terminus and protection of tryptophan with BOC during synthesis. Identical results were obtained with peptides obtained from Bio-Synthesis Inc. (Lewisville, Tex.). Stock solutions of peptides were prepared fresh daily by dissolving in dimethyl sulfoxide at 2.5 mM and incubated with thioredoxin-polyglutamine protein at 0.25-25 μM.
# (§6) To monitor thioredoxin-polyglutamine protein aggregation a turbidometric assay was developed, similar to the assays commonly used to study microtubule assembly and β-amyloid aggregation (Jarrett, J. T. et al. (1993) Biochem 32, 4693-4697; Sloboda, R. D. et al. (1976) Biochem 15, 4497-4505). Solutions of thio-Q62 and 81 protein increased turbidity in a polyglutamine length-, time- and concentration-dependent manner (FIG. 1B and C; Time dependence of aggregation of thioredoxin-polyglutamine with 81 glutamines not shown). […] The pelleted and retained material was confirmed as thioredoxin-polyglutamine fusion protein containing 62 or 81 glutamines on western blots probed with anti-thioredoxin or anti-polyglutamine antibody (not shown). In contrast, thioredoxin-polyglutamine protein containing 19 or 35 glutamines (thio-Q19 or 35) was not pelleted by centrifugation and was not trapped by a 0.22 μm filter.
# thio-Q62 = test: Thioredoxin-polyglutamine turbidity (aggregation) assay, thio-Q62; format: biochemical; details: for inhibition of thio-Q62 aggregation (in words): turbidity at 405 nm, FIG. 2
# Description: as §4, §5, §6
# Q81-YFP [1] = test: Co-localization with Q81-YFP aggregates in co-transfected COS-7 cells; format: cell-based; details: co-expression, 48 hours after transfection
# Description: The CAG repeat of the Qn-GFP vector (Onodera, O. et al. (1996) FEBS Letters 399, 135-139) were inserted into the XhoI and EcoRI sites of the pEYFP-N1 vector (Clontech, Palo Alto, Calif.) to construct the Qn-YFP vectors. The polyglutamine-binding peptide and control constructs were prepared by ligating synthetic oligonucleotides into the XhoI and BamHI sites of the pECFP-N1 vector (Clontech) to obtain glutamine binding peptide 1-CFP (QBP1-CFP), scrambled QBP1-CFP (SCR-CFP), and a computer-generated random peptide-CFP (RAN)-CFP. The insert of QBP1-CFP was duplicated by PCR to obtain a tandem repeat of QBP1-CFP ((QBP1)2-CFP). The sequence of all constructs was confirmed by DNA sequencing. The first methionine of YFP or CFP was changed to isoleucine by PCR site-directed mutagenesis to eliminate translation of the fluorescent protein without the polyglutamine domain. The sizes of the fluorescent fusion proteins were confirmed by western blotting.
# COS-7 cells were grown and maintained in Dulbecco's modified Eagles' medium (DMEM) supplemented with 10% fetal calf serum (FCS). Cells were transfected with Effectene according to manufacturer's instructions (Qiagen GmbH, Hilden, Germany). Cells were examined 48 hours after transfection using a Zeiss fluorescence microscope equipped with YFP/CFP filter sets (Omega Optical Inc., Brattleboro, Vt.). The percentage of cells with aggregates was calculated by dividing the number of cells with aggregates by the total number of fluorescent cells, multiplied by 100. Cell viability was examined 48 hours after transfection using ehtidium homodimer (Molecular Probes, Eugene, Oreg.). Cells were incubated with 5 μM ethidium homodimer for 30 minutes (37° C.) and then examined under a fluorescence microscope equipped with a rhodamine filter set. Cells with nuclear fluorescence were counted as dead. In each experiment at least 200 transfected cells were counted. Cells expressing random peptide-CFP (RAN-CFP) and polyglutamine-YFP (Qn-YFP) were used as a control to calculate the relative difference in aggregate formation and cell death. […]
# Q19-YFP = test: Intracellular distribution of Q19-YFP in co-transfected COS-7 cells; format: cell-based
# Description: as §2
# as §3, with “dead.” for “dead. In each experiment at least 200 transfected cells were counted.”
# Q45-YFP = Q45-YFP aggregate formation in co-transfected COS-7 cells; format: cell-based; details: COS-7, 48 hours
# Description: as §1, with “t-test) […]” for “t-test)”
# as §3
# Q57-YFP = Q57-YFP aggregate formation in co-transfected COS-7 cells; format: cell-based; details: COS-7, 48 hours
# Description: as §1, with “t-test) […]” for “t-test)”
# as §3
# Q81-YFP [2] = test: Q81-YFP aggregate formation in co-transfected COS-7 cells; format: cell-based; details: COS-7, 48 hours
# Description: as §1, with “t-test) […]” for “t-test)”
# as §3
# [3] = system: Q57-YFP induced cell death; test: Q57-YFP induced cell death in co-transfected COS-7 cells (ethidium homodimer); format: cell-based; details: peptides fused to CFP, co-expressed; for inhibition of Q57-YFP induced cell death: COS-7, 48 hours, ethidium homodimer
# Description: FIG. 5. […] Open bar=cells co-transfected with Q57-YFP and RAN-CFP. Hatched bar=cells co-transfected with Q57-YFP and SCR-CFP. Filled bar=cells co-transfected with Q57-YFP and QBP1-CFP. Dotted bar=cells co-transfected with Q57-YFP and (QBPI)2-CFP. COS-7 cells examined 48 hours after transfection using a Zeiss fluorescence microscope with rhodamine filter set. The percentage of dead cells was calculated by counting the number of transfected cells stained with ethidium homodimer and dividing by the total number of transfected cells multiplied times 100. In each experiment at least 200 transfected cells were counted. Experiments were repeated at least three times. Error bars represent standard errors. *=p<0.05; **=p<0.01 (Student's t-test).
# COS-7 cells were grown and maintained in Dulbecco's modified Eagles' medium (DMEM) supplemented with 10% fetal calf serum (FCS). Cells were transfected with Effectene according to manufacturer's instructions (Qiagen GmbH, Hilden, Germany). Cells were examined 48 hours after transfection using a Zeiss fluorescence microscope equipped with YFP/CFP filter sets (Omega Optical Inc., Brattleboro, Vt.). The percentage of cells with aggregates was calculated by dividing the number of cells with aggregates by the total number of fluorescent cells, multiplied by 100. Cell viability was examined 48 hours after transfection using ehtidium homodimer (Molecular Probes, Eugene, Oreg.). Cells were incubated with 5 μM ethidium homodimer for 30 minutes (37° C.) and then examined under a fluorescence microscope equipped with a rhodamine filter set. Cells with nuclear fluorescence were counted as dead. In each experiment at least 200 transfected cells were counted. Cells expressing random peptide-CFP (RAN-CFP) and polyglutamine-YFP (Qn-YFP) were used as a control to calculate the relative difference in aggregate formation and cell death. Experiments were repeated at least four times.
# The relationship between polyglutamine protein aggregation and cell death is controversial. To determine whether QBP1 or tandem-QBP1 inhibit polyglutamine-induced cell death, cell membrane permeability to ethidium homodimer was assayed. The membranes of living cells are impermeable to ethidium homodimer and permeability to ethidium homodimer is a well-established measure of cell death. Ethidium homodimer undergoes a 30-fold increase in fluorescence upon binding to nucleic acid allowing easy detection with a fluorescence microscope using a rhodamine filter. QBP1 and tandem QBP1 ((QBP1)2) fused to CFP inhibit Q57-YFP induced cell death (FIG. 5). […] Similar results have also been observed with Q45- and Q81-YFP (not shown).
# [4] = compared to cells co-expressing RAN-CFP
# [5] = peptides at 1 and 10 microMolar
# Sequence of Q81-YFP (as listed by the source): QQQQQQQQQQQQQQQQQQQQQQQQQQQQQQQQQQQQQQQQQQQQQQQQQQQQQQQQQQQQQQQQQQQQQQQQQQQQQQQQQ
# Sequence of thio-Q62 (as listed by the source): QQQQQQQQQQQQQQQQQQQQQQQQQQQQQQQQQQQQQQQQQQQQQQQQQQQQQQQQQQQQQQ
# Sequence of Q45-YFP (as listed by the source): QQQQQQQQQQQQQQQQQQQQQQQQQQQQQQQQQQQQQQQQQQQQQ
# Sequence of Q57-YFP (as listed by the source): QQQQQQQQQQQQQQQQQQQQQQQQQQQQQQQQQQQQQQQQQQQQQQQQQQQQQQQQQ
substance,measurement,setting,value
(QBP1)2-CFP: tandem repeat of QBP1 fused to cyan fluorescent protein (SNWKWWPGIFDSNWKWWPGIFD; also: fused to cyan fluorescent protein),effect on percentage of cells with polyglutamine aggregates,Qn-YFP,more effective
"LSLMEFGCRGA [RAN, computer-generated random 11 amino acid peptide, reference compound]",effect on turbidity of nonpathologic thio-Q19 or 35,thio-Q19 or 35,no effect
same,inhibition of thio-Q62 aggregation (in words),thio-Q62,did not inhibit aggregation
"QBP1-CFP: QBP1 fused to cyan fluorescent protein, expressed in COS-7 cells (SNWKWWPGIFD; also: fused to cyan fluorescent protein)",co-localization with Q81-YFP aggregates,Q81-YFP [1],co-localization
same,effect on percentage of cells with polyglutamine aggregates,Qn-YFP,reduced the percentage of cells with polyglutamine aggregates
same,effect of co-expression on Q19-YFP distribution,Q19-YFP,unaffected
same,reduction of Q45-YFP aggregation,Q45-YFP; [4],39%
RAN-CFP: computer-generated random peptide fused to cyan fluorescent protein (LSLMEFGCRGA; also: fused to cyan fluorescent protein),co-localization with Q81-YFP aggregates,Q81-YFP [1],did not co-localize
SCR-CFP: scrambled QBP1 fused to cyan fluorescent protein (WPIWSKGNDWF; also: fused to cyan fluorescent protein) [reference compound],co-localization with Q81-YFP aggregates,Q81-YFP [1],did not co-localize
same,effect on Q57-YFP aggregation (in words),Q57-YFP,did not alter aggregation
same,effect on Q45-YFP aggregation (in words),Q45-YFP,did not alter aggregation
same,effect on Q81-YFP aggregation (in words),Q81-YFP [2],did not alter aggregation
SNWKWWPGIFD [QBP1],effect on turbidity of nonpathologic thio-Q19 or 35,thio-Q19 or 35,no effect
same,inhibition of Q57-YFP induced cell death,[3],inhibit; also recorded: inhibits polyglutamine-mediated cell death
same,effect on percentage of cells with polyglutamine aggregates,Qn-YFP,decreases the number of cells containing polyglutamine aggregates
same,reduction of Q57-YFP aggregation,Q57-YFP; [4],26%
same,reversal of thio-Q62 aggregation,thio-Q62; peptide added after aggregation,did not reverse aggregation
same,inhibition of thio-Q62 aggregation (in words),thio-Q62,potently inhibited
same,inhibition of thio-Q62 aggregation (in words),thio-Q62; listed as QBP 1,inhibits thio-Q62 aggregation in a concentration-dependent pattern
same,effect on Q81-YFP aggregation (in words),Q81-YFP [2],did not reach statistical significance
"SNWKWWPGIFDSNWKWWPGIFD [(QBP1)2, tandem repeat of QBP1]",inhibition of cell death compared with monomer QBP1,[3],more effective
same,inhibition of Q57-YFP induced cell death,[3],inhibit
WDWWPGIFD,Ability to Inhibit Aggregation,"thio-Q62; 5 μm peptide and 15 μM thio-polyglutamine, 62 glutamines, 10 days",++ (++ = 50% inhibition)
WKWW,inhibition of polyglutamine-thioredoxin aggregation (FIG. 6 and 7),thio-Q62; [5],does not exhibit substantial inhibition of aggregation
"WKWWFD [QBP1-M6FD, QBP1-M7FD with the proline removed]",inhibition of polyglutamine-thioredoxin aggregation (FIG. 6 and 7),thio-Q62; [5],significant loss of activity
WKWWPFD,inhibition of polyglutamine-thioredoxin aggregation (FIG. 6 and 7),thio-Q62; [5],some activity at high concentration
WKWWPGIF,inhibition of polyglutamine-thioredoxin aggregation (FIG. 6 and 7),thio-Q62,retains full inhibitory activity
